In patent US12662493B2, “Non-immunosuppressive FK506 analogs and use thereof” (The Johns Hopkins University, priority 2019, dated 2026):

Tests used:
[1] = system: Jurkat T cells; assay: Resazurin-based cell viability assay of Jurkat cells; conditions: 3 days, concentrations up to 10 μM
Description: (§1) Jurkat (E6.1, ATCC) cells were cultured in RPMI with 10% FBS and 1.5% PennStrep. Jurkat cells (1×10^6) were transfected with 10 μg of BRE-Luciferase (kindly provided by Martine Roussel & Peter ten Dijke) or NFAT-Luciferase cDNA (Promega) by electroporation (BioRad, square-wave, 250V, […]) in 400 μL serum/antibiotic free RPMI with 0.5% DMSO. Thirty minutes after transfection, cells were transferred to complete RPMI and rested overnight. Before plating, cells were re-suspended in fresh media and diluted to 0.5×10^6 cells/mL. HEK293T cells were cultured in DMEM with 10% FBS, 1% PennStrep, and 500 μg/mL G418 (Corning). Cells were transfected using SuperFect reagent and supplied transfection protocols. HUVEC cells were cultured in Lonza Endothelial Cell Growth Medium (EGM-2) and used between passages 3 and 7. All cells were cultured at 37° C. with 5% CO2.
Jurkat or HUVEC cells were plated at 1000 cells/well in 180 μL growth media before addition of 20 μL of 10X drug/protein stock. After incubation for 72 h, 22 μL of a resazurin sodium salt solution (0.1 mg/mL stock in water) was added to each well and allowed to incubate at 37° C. The metabolic conversion of resazurin dye was monitored by absorbance at 570 nm after 6 h. After background subtraction (media only+dye), absorbance values were left as arbitrary absorbance units or normalized to those obtained from cells treated with DMSO.

[2] = system: BMP signaling pathway (ID1 gene promoter); assay: BMP-response-element (BRE) luciferase pathway reporter in Jurkat T cells; format: cell-based; conditions: for BRE reporter (ID-1 promoter luciferase) activation: 18 h, normalized to DMSO; for reduction of FK506- or FKVP-induced BRE reporter activity: LDN at 100 nM
Description: as §1
Jurkat T cells transfected with BRE-Luc were split into a 96-well plate (80 μL/well of 0.5×10^6 cells/mL)) and treated with previously stated compounds/proteins (20 μL of 5X stock in RPMI, 0.5% DMSO) for 18 h. rBMP-4 and […] (R&D) were used as positive and negative controls, respectively. Plates were centrifuged at 3000 rpm for 10 min, then carefully aspirated. Cells were re-suspended in 100 μL lysis buffer (per well) and placed on a plate-shaker for 30 min. An aliquot of 80 μL of lysate was transferred to a white-walled 96-well plate, and luminescence was recorded 2 seconds after automated injection of luciferase substrate. Luminescence values were background subtracted (lysis buffer+substrate) and normalized to DMSO control values.
FKBP12KO Jurkat T cells transfected with FKBP12-SNAP plasmid were selected with 1200 μg/mL G418 for seven days before use in BRE-Luc assays.

[3] = system: full-thickness excisional wounds; conditions: mouse, in vivo; cited from earlier work
[4] = system: cell migration stimulated by CXCL12; conditions: cited from earlier work
[5] = system: BMP type 1 receptor (SMAD1/5 phosphorylation); assay: SMAD1/5 phosphorylation Western blot in Jurkat cells; format: cell-based; conditions: LDN treatment
[6] = system: full-thickness excisional wounds; assay: In vivo excisional wound model in diabetic GK rats; design: species or system Goto-Kakizaki (GK) type-2 diabetic rats
Description: Goto-Kakizaki (GK) type-2 diabetic rats obtained from Charles River (Boston, MA) were housed in a pathogen-free facility and cared for according to NIH guidelines and a protocol approved by the Johns Hopkins University Animal Care and Use Committee (ACUC). Both male and female GK rats at age of 4-5 months were used in this study.
(§2) Full-thickness wounds were created in the dorsal skin of rats with a sterile disposable biopsy punch (8 mm in diameter). The animals were injected subcutaneously with saline, AMD3100 (1 mg/kg) plus FK506 (0.1 mg/kg) or AMD3100 (1 mg/kg) plus FKVP (0.1 mg/kg) immediately after wounding and every other day until complete healing, defined as complete re-epithelialization of the wound area. For assessing the role of BMP signaling, animals were injected intraperitoneally (i.p.) with LDN-193189 (2 mg/kg/day) in addition to standard saline or AF treatment. Wounds were evaluated daily according to the method described previously (Lin et al., 2014).
The one-way analysis of variance (ANOVA) was used to determine the statistically difference in wound healing among AF, AF+LDN, Saline and S+LDN groups or between AF, AV and Saline groups when comparing days of wound healing.

[7] = system: CD133+ stem cells in wound sites; assay: CD133 immunohistochemistry of wound tissue of GK rats; format: in vivo, Goto-Kakizaki (GK) type-2 diabetic rats; conditions: day 7, versus AF
Description: as §2
Cut sections of 5 μm were prepared from frozen tissue for immunohistochemistry staining. Frozen sections were fixed with acetone at −20° C. for 10 min and dried for 1 h at room temperature. After inactivation of endogenous peroxidase and blocking of nonspecific antibody binding, the specimens were incubated with anti-CD133 (1:300, ab19898; Abcam) at 4° C. overnight. The tissue sections were then subsequently incubated with biotin-conjugated goat anti-rabbit IgG (1:200, #14708S Cell Signaling, Danvers, MA) for 30 minutes at room temperature. The VectaStain Elite ABC kit (HRP) (Vector Laboratories, Burlingame, CA) was used to increase the sensitivity of the staining. […]

C=CC[C@@H]1/C=C(\C)C[C@H](C)C[C@H](OC)[C@H]2O[C@@](O)(C(=O)C(=O)N3CCCC[C@H]3C(=O)O[C@H](/C(C)=C/[C@@H]3CC[C@@H](O)[C@H](OC)C3)[C@H](C)[C@@H](O)CC1=O)[C@H](C)C[C@@H]2OC [FK506]
cell viability [1]: did not affect cell viability

c1cc(CN2CCCNCCNCCCNCC2)ccc1CN1CCCNCCNCCCNCC1 [AMD3100, 1,1′-[1,4-phenylenebis(methylene)]bis-1,4,8,11-tetraazacyclo-tetradecane]
BRE reporter (ID-1 promoter luciferase) activation [2]: no effect on ID-1 promoter stimulation | healing, AMD3100 treatment alone [3]: only slightly faster healing | IC50 [4]: 51 ± 17 nM

c1ccc2c(-c3cnn4cc(-c5ccc(N6CCNCC6)cc5)cnc34)ccnc2c1 [LDN-193189]
reduction of FK506- or FKVP-induced BRE reporter activity [2]: completely blocked | effect on FK506/FKVP-induced SMAD1/5 phosphorylation [5]: abolished | time for complete healing, LDN added to AF combination ([6]; LDN-193189 2 mg/kg/day i.p. plus AF): 25 days | effect on wound healing, LDN alone ([6]; LDN-193189 2 mg/kg/day i.p. with saline): no effect on wound healing | number of CD133+ cells in the wounds, LDN added to AF combination [7]: dramatically reduced

B1: Noggin: extracellular BMP-inhibitor protein (protein, UniProt Q13253 28-232, looked up)
Noggin: QHYLHIRPAPSDNLPLVDLIEHPDPIFDPKEKDLNETLLRSLLGGHYDPGFMATSPPEDRPGGGGGAAGGAEDLAELDQLLRQRPSGAMPSEIKGLEFSEGLAQGKKQRLSKKLRRKLQMWLWSQTFCPVLYAWNDLGSRFWPRYVKVGSCFSKRSCSVPEGMVCKPSKSVHLTVLRWRCQRRGGQRCGWIPIQYPIISECKCSC
reduction of FK506- or FKVP-induced BRE reporter activity [2]: not effective at reducing

B2: BMP4: recombinant BMP-4 protein, positive control of the BRE reporter (protein, UniProt P12644 293-408, looked up)
Bone morphogenetic protein 4: SPKHHSQRARKKNKNCRRHSLYVDFSDVGWNDWIVAPPGYQAFYCHGDCPFPLADHLNSTNHAIVQTLVNSVNSSIPKACCVPTELSAISMLYLDEYDKVVLKNYQEMVVEGCGCR
BRE reporter (ID-1 promoter luciferase) activation [2]: strong induction of luciferase expression
